{
  "source": "patent US20230295162A1",
  "about": "(EÖTVÖS LORÁND TUDOMÁNYEGYETEM, priority 2020, published 2023)",
  "key": {"Detroit 562 cell line": {"tested_on": "Detroit 562 cell line", "assay": "Additional in vitro IC50 tests (Table 3)", "format": "cell-based", "conditions": "Homo sapiens", "in_short": "(§1)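 Cells at 1000/well, viability by CellTiter-Glo luminescence after compound treatment, as % of untreated control. IC50 from variable-slope log(inhibitor) vs response nonlinear regression.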"}, "Fadu cell line": {"tested_on": "Fadu cell line", "assay": "Additional in vitro IC50 tests (Table 3)", "format": "cell-based", "conditions": "Homo sapiens", "in_short": "as §1"}, "SCC-25 cell line": {"tested_on": "SCC-25 cell line", "assay": "Additional in vitro IC50 tests (Table 3)", "format": "cell-based", "conditions": "Homo sapiens", "in_short": "as §1"}, "H2228 cell line": {"tested_on": "H2228 cell line", "assay": "Additional in vitro IC50 tests (Table 3)", "format": "cell-based", "conditions": "Homo sapiens, NCI-H2228", "in_short": "as §1"}, "EBC-1 cell line": {"tested_on": "EBC-1 cell line", "assay": "Additional in vitro IC50 tests (Table 3)", "format": "cell-based", "conditions": "Homo sapiens", "in_short": "as §1"}, "[1]": {"tested_on": "Panc1 pancreatic cancer cell line", "assay": "CellTiter-Glo IC50 (Example 19)", "format": "cell-based", "conditions": "Homo sapiens, PANC-1, 72 h", "in_short": "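Cells were seeded at 1000 cells/well and kept at 37 °C, 5% CO2. After compound treatment, viability was read by CellTiter-Glo luminescence as % of untreated control. IC50 came from a non-linear log(inhibitor) vs response fit with variable slope.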"}, "Panc-1 human cell line": {"tested_on": "Panc-1 human cell line", "assay": "Cytotoxicity on Panc-1, xCELLigence SP, IC50 after 24 h, 48 h, 72 h and 96 h (Example 22)"}, "[2]": {"tested_on": "EBC-1 lung cancer cell line", "assay": "High-throughput screening, CellTiter-Glo cell viability assay at 100 nM", "format": "cell-based, human", "conditions": "Homo sapiens, EBC-1, HTS, compounds at 100 nM, 72 h, read-out: cytotoxicity expressed in IC50, EBC-1 (results of High throughput screening)"}, "[3]": {"tested_on": "H2228 lung cancer cell line", "assay": "High-throughput screening, CellTiter-Glo cell viability assay at 100 nM", "format": "cell-based, human", "conditions": "Homo sapiens, NCI-H2228, HTS, compounds at 100 nM, 72 h, read-out: cytotoxicity expressed in IC50, H2228 (results of High throughput screening)"}, "[4]": {"tested_on": "Capan-1 (pancreas, adenocarcinoma) cells", "assay": "Cell viability assay, CellTiter-Glo (Example 21)", "format": "cell-based, human", "conditions": "72 h treatment", "in_short": "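Capan-1 cells were seeded at 1000 cells/well in flat-bottomed white 96 well plates (BRANDplates®), with density optimized for cell size and growth rate. Following compound treatment, viability was measured with the CellTiter-Glo® luminescent assay (Promega) per the manufacturer's instructions, reading luminescence on a BioTek Synergy 2 Multi-Mode Reader.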"}, "[5]": {"tested_on": "FaDu (pharynx, squamous cell carcinoma) cells", "assay": "Cell viability assay, CellTiter-Glo (Example 21)", "format": "cell-based, human", "conditions": "72 h treatment", "in_short": "(§2)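 Seeding density per line: Panc-1 750, FaDu 1000, Detroit 562 and MDA-MB-453 1500 cells/well. Viability after treatment read by CellTiter-Glo luminescence; dose-response curves fitted by four-parameter variable-slope non-linear regression.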"}, "[6]": {"tested_on": "MDA-MB-453 (breast, carcinoma) cells", "assay": "Cell viability assay, CellTiter-Glo (Example 21)", "format": "cell-based, human", "conditions": "72 h treatment", "in_short": "as §2"}, "[7]": {"tested_on": "Panc-1 (pancreas, carcinoma) cells", "assay": "Cell viability assay, CellTiter-Glo (Example 21)", "format": "cell-based, human", "conditions": "72 h treatment", "in_short": "as §2"}, "[8]": {"tested_on": "SCC-25 (tongue, squamous cell carcinoma) cells", "assay": "Cell viability assay, CellTiter-Glo (Example 21)", "format": "cell-based, human", "conditions": "72 h treatment", "in_short": "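SCC-25 tongue squamous cell carcinoma cells were seeded at 1000 cells/well in flat-bottomed white 96 well plates, treated with compound, and viability was then determined with the CellTiter-Glo luminescent assay (Promega) following the manufacturer's instructions. Luminescence was read on a BioTek Synergy 2 Multi-Mode Reader.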"}, "[9]": {"tested_on": "DU 145 (prostate, carcinoma) cells", "assay": "Cell viability assay, CellTiter-Glo (Example 21)", "format": "cell-based, human", "conditions": "72 h", "in_short": "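DU 145 cancer cell viability was assessed with the CellTiter-Glo® luminescent assay (Promega, Madison, WI, USA), following the manufacturer's instructions. Cells were seeded at 1000 cells/well in flat-bottomed white 96 well plates, and after treatment luminescence was read on a BioTek Synergy 2 Multi-Mode Reader.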"}, "[10]": {"tested_on": "MDA-MB-231 (breast, adenocarcinoma) cells", "assay": "Cell viability assay, CellTiter-Glo (Example 21)", "format": "cell-based, human", "conditions": "72 h treatment", "in_short": "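MDA-MB-231 breast adenocarcinoma cells were seeded at 1500 cells/well in flat-bottomed white 96 well plates (BRANDplates®, cat. no.: 781965). Following compound exposure, viability was assessed with the CellTiter-Glo® luminescent assay (Promega) following the manufacturer's protocol, and luminescence was read on a BioTek Synergy 2 Multi-Mode Reader.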"}},
  "note": "Read-outs that look alike come from different tables or passages of the source.",
  "data": [
    {"smiles": "O=C1C2=C(CCN(Cc3ccccc3)C2)N2CCN=C2N1Cc1ccc(C(F)(F)F)cc1", "note": "[I/1, reference compound]", "values": [
      {"measurement": "IC50", "setting": "Detroit 562 cell line", "value": 32, "unit": "nM"},
      {"measurement": "IC50", "setting": "Fadu cell line", "value": 90, "unit": "nM"},
      {"measurement": "IC50", "setting": "SCC-25 cell line", "value": 166, "unit": "nM"},
      {"measurement": "IC50", "setting": "H2228 cell line", "value": 105, "unit": "nM"},
      {"measurement": "IC50", "setting": "EBC-1 cell line", "value": 76, "unit": "nM"},
      {"measurement": "IC50", "setting": "[1]", "value": 74, "unit": "nM"},
      {"measurement": "IC50", "setting": "Panc-1 human cell line; PANC-1, 72 h, read-out: IC50 (72 h) [nM]", "value": "274 ± 15.9", "unit": "nM"},
      {"measurement": "IC50", "setting": "Panc-1 human cell line; PANC-1, 96 h, read-out: IC50 (96 h) [nM]", "value": "185 ± 44.4", "unit": "nM"},
      {"measurement": "IC50", "setting": "[2]", "value": "< 100", "unit": "nM"},
      {"measurement": "IC50", "setting": "[3]", "value": "> 100", "unit": "nM"},
      {"measurement": "Capan-1 (pancreas, adenocarcinoma) cell viability (% of control)", "setting": "[4]; 3.7 nM", "value": "100.3 ± 4.0 % of control"},
      {"measurement": "Capan-1 (pancreas, adenocarcinoma) cell viability (% of control)", "setting": "[4]; 11.1 nM", "value": "99.2 ± 3.8 % of control"},
      {"measurement": "Capan-1 (pancreas, adenocarcinoma) cell viability (% of control)", "setting": "[4]; 100 nM", "value": "88.1 ± 4.2 % of control"},
      {"measurement": "Capan-1 (pancreas, adenocarcinoma) cell viability (% of control)", "setting": "[4]; 300 nM", "value": "36.8 ± 3.4 % of control"},
      {"measurement": "FaDu (pharynx, squamous cell carcinoma) cell viability (% of control)", "setting": "[5]; 3.7 nM", "value": "102.4 ± 7.4 % of control"},
      {"measurement": "FaDu (pharynx, squamous cell carcinoma) cell viability (% of control)", "setting": "[5]; 11.1 nM", "value": "98.8 ± 4.7 % of control"},
      {"measurement": "FaDu (pharynx, squamous cell carcinoma) cell viability (% of control)", "setting": "[5]; 100 nM", "value": "46.9 ± 5.6 % of control"},
      {"measurement": "FaDu (pharynx, squamous cell carcinoma) cell viability (% of control)", "setting": "[5]; 300 nM", "value": "25.6 ± 5.3 % of control"},
      {"measurement": "MDA-MB-453 (breast, carcinoma) cell viability (% of control)", "setting": "[6]; 3.7 nM", "value": "111.0 ± 7.3 % of control"},
      {"measurement": "MDA-MB-453 (breast, carcinoma) cell viability (% of control)", "setting": "[6]; 11.1 nM", "value": "110.8 ± 2.3 % of control"},
      {"measurement": "MDA-MB-453 (breast, carcinoma) cell viability (% of control)", "setting": "[6]; 100 nM", "value": "37.9 ± 1.3 % of control"},
      {"measurement": "MDA-MB-453 (breast, carcinoma) cell viability (% of control)", "setting": "[6]; 300 nM", "value": "32.5 ± 0.5 % of control"},
      {"measurement": "Panc-1 (pancreas, carcinoma) cell viability (% of control)", "setting": "[7]; 3.7 nM", "value": "105.8 ± 0.5 % of control"},
      {"measurement": "Panc-1 (pancreas, carcinoma) cell viability (% of control)", "setting": "[7]; 11.1 nM", "value": "104.6 ± 7.2 % of control"},
      {"measurement": "Panc-1 (pancreas, carcinoma) cell viability (% of control)", "setting": "[7]; 100 nM", "value": "81.8 ± 8.1 % of control"},
      {"measurement": "Panc-1 (pancreas, carcinoma) cell viability (% of control)", "setting": "[7]; 300 nM", "value": "56.9 ± 2.4 % of control"},
      {"measurement": "SCC-25 (tongue, squamous cell carcinoma) cell viability (% of control)", "setting": "[8]; 3.7 nM", "value": "108.5 ± 8.6 % of control"},
      {"measurement": "SCC-25 (tongue, squamous cell carcinoma) cell viability (% of control)", "setting": "[8]; 11.1 nM", "value": "105.5 ± 12.7 % of control"},
      {"measurement": "SCC-25 (tongue, squamous cell carcinoma) cell viability (% of control)", "setting": "[8]; 100 nM", "value": "76.7 ± 19.9 % of control"},
      {"measurement": "SCC-25 (tongue, squamous cell carcinoma) cell viability (% of control)", "setting": "[8]; 300 nM", "value": "37.6 ± 4.3 % of control"},
      {"measurement": "DU 145 cell viability", "setting": "[9]; 3.7 nM", "value": "99.0 ± 4.6 % of control"},
      {"measurement": "DU 145 cell viability", "setting": "[9]; 11.1 nM", "value": "101.3 ± 4.3 % of control"},
      {"measurement": "DU 145 cell viability", "setting": "[9]; 100 nM", "value": "17.5 ± 4.2 % of control"},
      {"measurement": "DU 145 cell viability", "setting": "[9]; 300 nM", "value": "8.1 ± 2.2 % of control"},
      {"measurement": "MDA-MB-231 (breast, adenocarcinoma) cell viability (% of control)", "setting": "[10]; 3.7 nM", "value": "101.0 ± 4.4 % of control"},
      {"measurement": "MDA-MB-231 (breast, adenocarcinoma) cell viability (% of control)", "setting": "[10]; 11.1 nM", "value": "97.9 ± 1.1 % of control"},
      {"measurement": "MDA-MB-231 (breast, adenocarcinoma) cell viability (% of control)", "setting": "[10]; 100 nM", "value": "87.9 ± 4.4 % of control"},
      {"measurement": "MDA-MB-231 (breast, adenocarcinoma) cell viability (% of control)", "setting": "[10]; 300 nM", "value": "56.8 ± 2.1 % of control"}
    ]}
  ]
}
